This is an account of results in US11033516B1, “Combination therapies with disulfiram” (Spring Discovery, Inc., priority 2020, dated 2021).

For series [1], the system named is T-type calcium channels (T-channels). The note with it: native T-currents; cited from earlier work.
In the next series the target is tyrosinase. Particulars: read-out: IC50, reversible inhibitor of tyrosinase; cited from earlier work.
The subject of another series is Spodoptera litura larvae. The note with it: cited from earlier work.
For series [2], the system named is most gram-positive and some gram-negative bacteria. The note with it: cited from earlier work.
The test system of another series is SAMP8 mice. The note with it: intragastric, 4-month-old SAMP8 mice, 2 months; cited from earlier work.
Another series has as its target CYP2C8 (Homo sapiens, UniProt P10632). The note with it: cited from earlier work.
The target in the next series is CYP2B6 (Homo sapiens, UniProt P20813). The note with it: cited from earlier work.
A further series concerns the target CYP2C19 (Homo sapiens, UniProt P33261). Particulars: cited from earlier work.
For a further series, the target named is CYP3A4 (Homo sapiens, UniProt P08684). The note with it: cited from earlier work.
Another series has as its target CYP2C9 (Homo sapiens, UniProt P11712). The note with it: cited from earlier work.
The target in another series is human SIRT2 (Homo sapiens, UniProt Q8IXJ6). The note with it: read-out: IC50, inhibition of human SIRT2; cited from earlier work.
A further series deals with human SIRT1 (Homo sapiens, UniProt Q96EB6). The note with it: read-out: IC50, inhibition of human SIRT1; cited from earlier work.
A further series concerns the target FGFR2 (Homo sapiens, UniProt P21802). The note with it: cited from earlier work.
Series [3] addresses fibroblast growth factor receptor 1 (FGFR1) (Homo sapiens, UniProt P11362). The note with it: cited from earlier work.
The next series concerns SV-129 mice. The note with it: 450 mg/kg during a 15-minute period, after chronic simvastatin 2 mg/kg s.c. daily for 14 days; cited from earlier work.
Series [4] concerns the target N-methyl-D-aspartate receptors (NMDARs) (Homo sapiens, UniProt Q05586). The note with it: read-out: KB, competitive antagonist for the glycine-binding site of NMDARs; cited from earlier work.
For series [5] the following is noted: 510 mg/day, patients, cited from earlier work.
Another series relates to S. aureus. The note with it: cited from earlier work.
In a further series the test system is most molds. The note with it: for most molds; cited from earlier work.
The conditions of series [6]: static toxicity tests; cited from earlier work.
Series [7] relates to vesicular stomatitis virus (VSV). The note with it: cited from earlier work.
In the next series the test system is poliovirus. Particulars: cited from earlier work.
The test system of a further series is HSV-1. Particulars: cited from earlier work.
For the next series, the target named is T1, Human erythrocyte GLUT1 (Homo sapiens, UniProt P11166).
T1 construct: Human erythrocyte GLUT1; from tissue; host or cells: human erythrocytes
The note with it: cited from earlier work.

The target in another series is T2, Yeast-made GLUT1 (Rattus norvegicus, UniProt P11167).
T2 construct: host or cells: yeast
The note with it: cited from earlier work.

Series [8] deals with carrageenan-induced edema and nociception. The note with it: 25, 50 or 100 mg/kg, i.p., immediately and 2 h after injection of carrageenan; cited from earlier work.
In series [9] the test system is fever induced by lipopolysaccharide (LPS). The note with it: 50 or 100 mg/kg, i.p., 0 and 2 h, rats; cited from earlier work.
A further series has as its target COX-2 (Homo sapiens, UniProt P35354). Particulars: read-out: IC50, inhibition of COX-2 activity; cited from earlier work.
A further series addresses TRPM8 (Homo sapiens, UniProt Q7Z2W7). The note with it: read-out: EC50, agonist of TRPM8; cited from earlier work.
The target in the next series is hERG channel (Homo sapiens, UniProt Q12809). The note with it: read-out: IC50, hERG channel blocker; cited from earlier work.
In another series the test system is THP1 HMGB1 Lucia cells. Put plainly: Pyroptosis inhibition luciferase assay (LPS + nigericin, HMGB1 luciferase reporter, QUANTI-Luc). The note with it: 1 μg/ml LPS 3 h, then 10 μM nigericin 3 h.
The subject of series [10] is fibroblasts, peripheral blood mononuclear cells (PBMCs), myoblasts. As to the kind of experiment: Reversal of aging (reducing predicted age) in cultured young/old cells contacted with disulfiram plus potentiating ingredients. Particulars: concentrations 0.000005 to 80 μM; potentiating ingredient up to 25 μM.
For series [11], the system named is periodontopathic and cariogenic bacteria. Particulars: cited from earlier work.
In the next series the target is β-glucosidase. Particulars: cited from earlier work.

What is called IC50 is the concentration that inhibits the measured activity by half. A word on the Ki: it is a dissociation constant, usually derived from enzyme kinetics or from competition with a known ligand. A word on the Kb: it is the equilibrium dissociation constant of an antagonist, usually derived from a functional assay. A word on the EC50: it is the concentration giving half of the maximal effect.

CYP2C8, sequence (P10632 whole entry): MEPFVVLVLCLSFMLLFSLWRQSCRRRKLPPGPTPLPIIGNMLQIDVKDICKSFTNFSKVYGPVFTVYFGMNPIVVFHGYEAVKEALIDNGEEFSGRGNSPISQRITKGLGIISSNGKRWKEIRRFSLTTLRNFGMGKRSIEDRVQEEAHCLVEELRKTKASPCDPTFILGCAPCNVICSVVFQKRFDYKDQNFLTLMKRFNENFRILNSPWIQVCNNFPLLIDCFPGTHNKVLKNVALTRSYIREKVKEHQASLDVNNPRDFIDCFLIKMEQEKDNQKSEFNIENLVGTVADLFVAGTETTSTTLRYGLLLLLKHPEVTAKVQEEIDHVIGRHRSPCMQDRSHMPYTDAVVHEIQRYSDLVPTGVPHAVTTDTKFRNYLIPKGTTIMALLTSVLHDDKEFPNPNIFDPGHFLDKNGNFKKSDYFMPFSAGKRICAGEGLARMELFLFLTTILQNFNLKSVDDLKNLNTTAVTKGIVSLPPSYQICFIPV
COX-2, sequence (P35354 18-604): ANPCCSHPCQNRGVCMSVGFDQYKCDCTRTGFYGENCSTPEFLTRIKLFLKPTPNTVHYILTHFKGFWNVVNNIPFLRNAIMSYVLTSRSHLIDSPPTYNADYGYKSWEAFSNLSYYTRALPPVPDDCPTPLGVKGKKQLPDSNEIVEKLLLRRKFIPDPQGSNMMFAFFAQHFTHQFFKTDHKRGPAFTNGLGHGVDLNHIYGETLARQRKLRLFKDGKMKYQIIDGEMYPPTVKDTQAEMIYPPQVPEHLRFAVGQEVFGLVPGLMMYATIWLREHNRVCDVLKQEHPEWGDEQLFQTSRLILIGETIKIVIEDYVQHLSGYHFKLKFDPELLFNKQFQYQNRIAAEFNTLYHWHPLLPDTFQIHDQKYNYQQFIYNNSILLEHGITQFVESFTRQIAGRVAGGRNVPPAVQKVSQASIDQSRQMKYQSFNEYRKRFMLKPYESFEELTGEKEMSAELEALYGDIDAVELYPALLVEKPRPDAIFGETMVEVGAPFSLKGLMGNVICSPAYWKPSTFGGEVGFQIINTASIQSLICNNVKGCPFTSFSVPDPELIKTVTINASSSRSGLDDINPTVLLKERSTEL
CYP2C9, sequence (P11712 whole entry): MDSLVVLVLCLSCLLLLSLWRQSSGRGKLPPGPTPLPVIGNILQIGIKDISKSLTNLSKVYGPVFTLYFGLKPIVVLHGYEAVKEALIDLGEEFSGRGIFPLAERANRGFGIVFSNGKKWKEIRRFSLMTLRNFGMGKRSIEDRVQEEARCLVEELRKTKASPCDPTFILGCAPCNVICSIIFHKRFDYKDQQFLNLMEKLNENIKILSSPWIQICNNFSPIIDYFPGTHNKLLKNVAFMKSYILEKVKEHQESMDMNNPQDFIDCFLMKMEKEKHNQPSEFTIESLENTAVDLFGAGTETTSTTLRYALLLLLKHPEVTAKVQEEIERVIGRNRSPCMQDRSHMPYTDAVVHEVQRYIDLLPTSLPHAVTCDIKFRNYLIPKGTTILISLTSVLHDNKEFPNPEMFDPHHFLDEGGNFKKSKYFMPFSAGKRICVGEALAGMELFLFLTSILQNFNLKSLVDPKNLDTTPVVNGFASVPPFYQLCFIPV
FGFR2, sequence (P21802 22-821, species assumed): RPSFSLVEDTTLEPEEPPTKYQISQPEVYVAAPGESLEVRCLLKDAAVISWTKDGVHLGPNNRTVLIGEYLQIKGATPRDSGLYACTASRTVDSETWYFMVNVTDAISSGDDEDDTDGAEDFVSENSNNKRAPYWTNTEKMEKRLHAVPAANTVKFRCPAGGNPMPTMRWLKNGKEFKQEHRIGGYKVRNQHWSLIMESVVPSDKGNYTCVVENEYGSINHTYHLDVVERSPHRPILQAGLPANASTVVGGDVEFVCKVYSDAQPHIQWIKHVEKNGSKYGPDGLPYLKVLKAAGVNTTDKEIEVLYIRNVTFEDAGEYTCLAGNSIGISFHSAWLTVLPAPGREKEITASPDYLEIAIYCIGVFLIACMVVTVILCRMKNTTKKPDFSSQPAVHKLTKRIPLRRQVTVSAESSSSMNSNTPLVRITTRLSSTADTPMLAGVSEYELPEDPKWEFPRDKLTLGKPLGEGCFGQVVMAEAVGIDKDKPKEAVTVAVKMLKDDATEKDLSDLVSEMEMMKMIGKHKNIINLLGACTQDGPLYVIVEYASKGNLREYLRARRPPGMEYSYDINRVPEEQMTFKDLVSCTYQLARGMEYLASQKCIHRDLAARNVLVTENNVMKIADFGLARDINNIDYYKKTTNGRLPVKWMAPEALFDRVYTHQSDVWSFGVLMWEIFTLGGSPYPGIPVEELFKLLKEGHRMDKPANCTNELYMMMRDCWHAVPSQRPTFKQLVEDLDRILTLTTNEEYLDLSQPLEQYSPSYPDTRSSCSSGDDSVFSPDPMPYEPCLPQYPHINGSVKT
TRPM8, sequence (Q7Z2W7 whole entry, species assumed): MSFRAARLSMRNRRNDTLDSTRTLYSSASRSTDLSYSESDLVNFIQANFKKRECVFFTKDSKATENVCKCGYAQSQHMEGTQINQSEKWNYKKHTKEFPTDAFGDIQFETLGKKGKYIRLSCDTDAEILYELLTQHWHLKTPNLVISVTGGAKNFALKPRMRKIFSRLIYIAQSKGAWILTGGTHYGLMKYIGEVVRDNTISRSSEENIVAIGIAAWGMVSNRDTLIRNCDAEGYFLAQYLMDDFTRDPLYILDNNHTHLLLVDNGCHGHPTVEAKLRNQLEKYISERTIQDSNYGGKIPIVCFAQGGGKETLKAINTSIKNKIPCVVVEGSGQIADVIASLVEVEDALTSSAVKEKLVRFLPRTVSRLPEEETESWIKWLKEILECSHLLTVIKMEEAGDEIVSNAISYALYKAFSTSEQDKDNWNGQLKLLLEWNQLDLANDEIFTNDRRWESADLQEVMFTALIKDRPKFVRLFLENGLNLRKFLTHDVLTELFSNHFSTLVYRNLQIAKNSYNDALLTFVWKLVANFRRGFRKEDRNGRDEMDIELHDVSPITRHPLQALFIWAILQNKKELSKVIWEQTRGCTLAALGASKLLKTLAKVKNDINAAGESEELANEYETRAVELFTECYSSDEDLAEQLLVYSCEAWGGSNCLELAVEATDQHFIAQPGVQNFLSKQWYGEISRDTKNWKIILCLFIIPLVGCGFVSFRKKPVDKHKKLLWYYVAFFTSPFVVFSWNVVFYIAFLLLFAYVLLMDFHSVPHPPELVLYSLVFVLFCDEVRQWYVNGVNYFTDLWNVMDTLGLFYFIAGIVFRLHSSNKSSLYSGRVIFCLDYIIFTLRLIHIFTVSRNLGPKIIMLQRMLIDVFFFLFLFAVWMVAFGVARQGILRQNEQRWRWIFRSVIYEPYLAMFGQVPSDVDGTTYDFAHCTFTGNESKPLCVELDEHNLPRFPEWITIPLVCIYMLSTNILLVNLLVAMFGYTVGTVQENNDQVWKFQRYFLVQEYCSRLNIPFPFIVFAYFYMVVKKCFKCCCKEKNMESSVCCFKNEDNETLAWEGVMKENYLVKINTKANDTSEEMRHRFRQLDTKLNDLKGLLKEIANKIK
CYP2B6, sequence (P20813 whole entry): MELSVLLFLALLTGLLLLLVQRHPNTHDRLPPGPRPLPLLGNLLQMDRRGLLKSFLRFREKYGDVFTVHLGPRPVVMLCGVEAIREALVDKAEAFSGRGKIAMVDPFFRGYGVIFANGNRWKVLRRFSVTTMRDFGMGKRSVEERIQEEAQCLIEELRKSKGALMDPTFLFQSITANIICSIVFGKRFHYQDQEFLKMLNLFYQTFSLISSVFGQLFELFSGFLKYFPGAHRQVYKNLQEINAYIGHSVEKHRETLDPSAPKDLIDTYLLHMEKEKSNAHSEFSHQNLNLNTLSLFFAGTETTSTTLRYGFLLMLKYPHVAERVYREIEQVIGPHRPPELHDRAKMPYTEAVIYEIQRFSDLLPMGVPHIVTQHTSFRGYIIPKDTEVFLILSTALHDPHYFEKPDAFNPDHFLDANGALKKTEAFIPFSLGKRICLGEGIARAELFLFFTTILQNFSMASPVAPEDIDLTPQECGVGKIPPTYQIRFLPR
CYP3A4, sequence (P08684 whole entry): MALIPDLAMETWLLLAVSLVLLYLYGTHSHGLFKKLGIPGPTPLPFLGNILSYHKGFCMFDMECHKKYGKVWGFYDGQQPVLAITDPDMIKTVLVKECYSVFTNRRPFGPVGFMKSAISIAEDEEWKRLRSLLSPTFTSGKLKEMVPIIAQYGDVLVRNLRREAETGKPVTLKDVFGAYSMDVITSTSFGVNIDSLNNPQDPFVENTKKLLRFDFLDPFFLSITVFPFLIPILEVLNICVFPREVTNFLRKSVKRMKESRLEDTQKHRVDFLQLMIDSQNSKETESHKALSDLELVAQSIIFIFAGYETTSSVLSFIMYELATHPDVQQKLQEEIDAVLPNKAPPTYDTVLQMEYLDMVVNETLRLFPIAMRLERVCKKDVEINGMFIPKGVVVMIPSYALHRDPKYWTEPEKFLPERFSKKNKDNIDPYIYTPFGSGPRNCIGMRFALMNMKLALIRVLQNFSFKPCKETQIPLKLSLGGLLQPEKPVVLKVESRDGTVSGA
human SIRT2, sequence (Q8IXJ6 whole entry): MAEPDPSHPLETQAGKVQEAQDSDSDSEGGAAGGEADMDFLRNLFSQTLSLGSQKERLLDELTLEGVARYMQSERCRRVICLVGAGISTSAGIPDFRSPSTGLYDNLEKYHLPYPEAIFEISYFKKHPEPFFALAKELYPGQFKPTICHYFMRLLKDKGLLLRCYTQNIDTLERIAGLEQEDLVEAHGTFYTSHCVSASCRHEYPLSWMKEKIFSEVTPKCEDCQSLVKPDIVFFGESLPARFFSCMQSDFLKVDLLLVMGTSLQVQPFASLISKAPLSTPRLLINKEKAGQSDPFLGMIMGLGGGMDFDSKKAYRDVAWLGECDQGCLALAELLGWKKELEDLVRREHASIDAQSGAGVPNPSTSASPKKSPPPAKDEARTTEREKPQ

As to `CCCCCCCCO` [1-Octanol], the IC50 in series [1] is 4 µM. `O=C(O)CCC(=O)C(=O)O` [2-Ketoglutaric acid]: on tyrosinase, the IC50 was 15000 µM. As to `CCCC=C1OC(=O)c2ccccc21` [3-Butylidenephthalide], the LC50 larvicidal activity result with Spodoptera litura larvae is reported as “activity (LC50 of 1.56 mg/g for Spodoptera”. As to `O=C(O)c1ccc(O)cc1` [4-Hydroxybenzoic acid], the “IC50, inhibition of most gram-positive and some gram-negative bacteria” value in series [2] was “of 160 μg/mL”.

For `CCCCC1OC(=O)c2ccccc21` (stereo not shown) [Butylphthalide], in the series on SAMP8 mice, the “loss of choline acetyltransferase (ChAT)-positive neurons in the medial septal nucleus and vertical limb of the diagonal band” value was “diagonal band in SAMP8 mice was slowed down,”; the “spatial learning and memory ability” value is on record as 2 months significantly improved spatial learning a. For `C[C@@H]1CC[C@H]2C(C)(C)[C@H]3C[C@@]12CC[C@@]3(C)O` [Cedrol], the “inhibitory effect on CYP2C8” value at CYP2C8 is “has weak inhibitory effect on CYP2C8,”. Moreover, the inhibition constant (Ki) on CYP2B6 is 0.9 µM; on CYP3A4, 3.4 µM. At CYP2C19, the “inhibitory effect on CYP2C19” value is recorded as “has weak inhibitory effect on CYP2C8,”. The “inhibitory effect on CYP2C9” value on CYP2C9 is listed as “has weak inhibitory effect on CYP2C8,”. Consider `O=C1CCc2ccccc2O1` [Dihydrocoumarin], for which the IC50 was 295 µM on human SIRT2 and 208 µM at human SIRT1. With `COc1cc(/C=C/C(=O)O)ccc1O` [Ferulic acid (sodium)], the IC50 at FGFR2 was 12.5 µM; in series [3], 3.78 µM. Consider `N=C(N)NCCC[C@H](N)C(=O)O` [L-Arginine], for which the “hyperemia amplified and sustained” value with SV-129 mice is “hyperemia (38%) and increases absolute brain”. For `N[C@@H](Cc1ccccc1)C(=O)O` [L-Phenylalanine], the Kb in series [4] is 573 µM. As to `C[N+](C)(C)C[C@H](O)CC(=O)[O-]` [L-carnitine], in [5] (compared with placebo-treated periods), the “total time for dozing off during the daytime, calculated from the sleep logs” value is “improved the total time for dozing off during the”. In [5], the serum acylcarnitine levels entry is “(Levocarnitine) efficiently increased serum acyl-”; the serum triglycerides concentration entry was “carnitine levels, and reduced serum triglycerides”. With `CCCCCCCCCCCC(=O)O` [Lauric acid], the “EC50 for S. aureus” value with S. aureus was 6 µg/mL. Turning to `C[C@@H]1C/C=C/C=C/C=C/C=C/[C@H](O[C@@H]2O[C@H](C)[C@@H](O)[C@H](N)[C@@H]2O)C[C@@H]2O[C@](O)(C[C@@H](O)C[C@H]3O[C@@H]3/C=C/C(=O)O1)C[C@H](O)[C@H]2C(=O)O` [Natamycin], the “MIC (minimum inhibitory concentration)” value with most molds is “concentration) of less than 10 ppm for most molds”.

With `CCCCCCCCC(=O)NCc1ccc(O)c(OC)c1` [Nonivamide], the 4d-EC50 result in series [6] is given as “exhibits 4d-EC50 value of 5.1 mg/L in static”. As for `CCCCCCCCOC(=O)c1cc(O)c(O)c(O)c1` [Octyl gallate], the “antiviral effect against vesicular stomatitis virus (VSV)” value in series [7] is listed as “Octyl gallate shows a marked antiviral effect”. Besides, the “antiviral effect against poliovirus” value with poliovirus was “Octyl gallate shows a marked antiviral effect”. For the same molecule, the “antiviral effect against HSV-1” value in the series with HSV-1 is on record as “Octyl gallate shows a marked antiviral effect”. Take `O=C(CCc1ccc(O)cc1)c1c(O)cc(O)cc1O` [Phloretin]: the results for the half-inhibitory concentration (IC50) at Human erythrocyte GLUT1 and at Yeast-made GLUT1 were 61 µM and 49 µM, respectively. Turning to `Cc1cc2nc3c(=O)[nH]c(=O)nc-3n(C[C@H](O)[C@H](O)[C@H](O)CO)c2cc1C` [Riboflavin], the antinociceptive effect result in [8] is “antinociceptive effects. The antinociceptive effect”. Moreover, the “fever induced by lipopolysaccharide (LPS)” value in series [9] was 2 h) also inhibited the fever induced by lipopoly-. For the molecule `COc1cc(C=O)cc(OC)c1O` [Syringaldehyde], the concentration for half-maximal inhibition (IC50) on COX-2 is 19.2 µM. As to `CCNC(=O)C1CC(C)CCC1C(C)C` (stereo not shown) [TRPM8 antagonist WS-3], the EC50 on TRPM8 was 3.7 µM. Turning to `O=C(OC[C@H]1O[C@@H](OC(=O)c2cc(O)c(O)c(OC(=O)c3cc(O)c(O)c(O)c3)c2)[C@H](OC(=O)c2cc(O)c(O)c(OC(=O)c3cc(O)c(O)c(O)c3)c2)[C@@H](OC(=O)c2cc(O)c(O)c(OC(=O)c3cc(O)c(O)c(O)c3)c2)[C@@H]1OC(=O)c1cc(O)c(O)c(OC(=O)c2cc(O)c(O)c(O)c2)c1)c1cc(O)c(O)c(OC(=O)c2cc(O)c(O)c(O)c2)c1` [Tannic acid], the IC50 at hERG channel was 3.4 µM. Take `O=C/C=C/c1ccccc1` [cinnamaldehyde, (2E)-3-Phenyl-2-propenal]: in the series on THP1 HMGB1 Lucia cells, the “inhibition of pyroptosis (HMGB1 luciferase reporter in supernatant)” value was “no effect”. In series [10], the “ability to potentiate disulfiram in reversing aging of cells” value was “identified as a potentiating ingredient”.

As to `CC1=CCC(C(C)(C)O)CC1` (stereo not drawn) [α-Terpineol], the “antimicrobial activity against periodontopathic and cariogenic bacteria” value in series [11] is listed as “Labill, exhibits strong antimicrobial activity”. In the case of Rebaudioside A, at β-glucosidase, the “IC 50 (Target: β-glucosidase)” value is “IC 50: 35.01 ug/mL”.
